Laboratory results as given in PubChem BioAssay AID330 (DTP/NCI, 2004).
Several values for one entry are separate records, joined by “and”; a condition that tells them apart may be missing. Equal values may be shown once. Toxic doses and inconclusive results are not listed.

Tested on: P388 leukemia ip, CD2F1 mice, survival T/C
Assay: NCI In Vivo Anticancer Drug Screen. Data for tumor model P388 Leukemia (intraperitoneal) in CD2F1 (CDF1) mice
Conditions: endpoint: median survival time, higher = longer survival
How it was run: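 Mice carrying the transplanted tumor received test compound or vehicle. Survival was recorded in each group, and the value is the treated-group measurement divided by that of the vehicle-treated control group.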

[1] = dose: 60.0 mg/kg/injection, schedule: Q01DX005 (ip), vehicle: saline with Tween-80
[2] = dose: 50.0 mg/kg/injection, schedule: Q01DX005 (ip), vehicle: Klucel (hydroxypropylcellulose) (HPC)
[3] = dose: 100.0 mg/kg/injection, schedule: Q01DX005 (ip), vehicle: Klucel (hydroxypropylcellulose) (HPC)
[4] = dose: 120.0 mg/kg/injection, schedule: Q01DX005 (ip), vehicle: saline with Tween-80
[5] = dose: 240.0 mg/kg/injection, schedule: Q01DX005 (ip), vehicle: saline with Tween-80

`C/C=C/C=c1/[nH]c(=O)/c(=C\C)[nH]c1=O` was tested, and the T/C (dose: 50.0 mg/kg/injection, schedule: Q04DX003 (ip), vehicle: Klucel (hydroxypropylcellulose) (HPC)) was 100 % of control, the T/C (dose: 100.0 mg/kg/injection, schedule: Q04DX003 (ip), vehicle: Klucel (hydroxypropylcellulose) (HPC)) was 98 % of control and the T/C (dose: 200.0 mg/kg/injection, schedule: Q04DX003 (ip), vehicle: Klucel (hydroxypropylcellulose) (HPC)) was 90 % of control.

`COc1cc(C2C(C#N)=CNc3nc(N)nc(N)c32)cc(OC)c1OC` (stereo not given) was tested, and the T/C [1] was 120 % of control.

With `CC12CCC(O)C=C1CCC1C2CCC2(C)C(C3=CC(=O)OC3)CCC12O` (stereo not given) the T/C (dose: 3.1 micrograms/kg/injection, schedule: Q01DX009 (ip), vehicle: saline with Tween-80) was 101 % of control, the T/C (dose: 6.2 micrograms/kg/injection, schedule: Q01DX009 (ip), vehicle: saline with Tween-80) was 100 % of control and the T/C (dose: 12.5 micrograms/kg/injection, schedule: Q01DX009 (ip), vehicle: saline with Tween-80) was 96 % of control. For the same compound, the T/C (dose: 25.0 micrograms/kg/injection, schedule: Q01DX009 (ip), vehicle: saline with Tween-80) was 102 % of control.

`Oc1ccccc1C=Nc1ccccc1N=Cc1ccccc1O.[Cu]` was tested, and the T/C [2] was 99 % of control, the T/C [3] was 97 % of control and the T/C (dose: 200.0 mg/kg/injection, schedule: Q01DX005 (ip), vehicle: Klucel (hydroxypropylcellulose) (HPC)) was 90 % of control.

For `CN1c2ccccc2C2CCCCC21` (stereo not given), the T/C (dose: 50.0 mg/kg/injection, schedule: Q01DX005 (ip), vehicle: saline with Tween-80) was 100 % of control, the T/C (dose: 100.0 mg/kg/injection, schedule: Q01DX005 (ip), vehicle: saline with Tween-80) was 99 % of control and the T/C (dose: 200.0 mg/kg/injection, schedule: Q01DX005 (ip), vehicle: saline with Tween-80) was 111 % of control.

With `COCCn1c(N)c(C(=S)Nc2ccccc2)c(=O)[nH]c1=O` the T/C (dose: 50.0 mg/kg/injection, schedule: Q01DX009 (ip), vehicle: saline) was 101 % of control, the T/C (dose: 100.0 mg/kg/injection, schedule: Q01DX009 (ip), vehicle: saline) was 104 % of control and the T/C (dose: 200.0 mg/kg/injection, schedule: Q01DX009 (ip), vehicle: saline) was 105 % of control.

With `O=C1CNC(=O)N1CN1CCOCC1` the T/C (dose: 25.0 mg/kg/injection, schedule: Q01DX005 (ip), vehicle: Klucel (hydroxypropylcellulose) (HPC)) was 107 % of control, the T/C [2] was 107 % of control and 111 % of control and the T/C [3] was 118 % of control.

For `O=C(NCc1ccco1)Nc1cccc2c(NC(=O)NCc3ccco3)cccc12`, the T/C (dose: 30.0 mg/kg/injection, schedule: Q01DX005 (ip), vehicle: saline with Tween-80) was 100 % of control, the T/C [1] was 97 % of control and the T/C [4] was 90 % of control. For the same compound, the T/C [5] was 86 % of control.

For `O=C(CCCC(=O)Nc1cccc2[nH]c3ccccc3c(=O)c12)Nc1cccc2[nH]c3ccccc3c(=O)c12`, the T/C [1] was 100 % of control, the T/C [4] was 88 % of control and the T/C [5] was 100 % of control.

With `COc1cccc2c1C(=O)c1c(O)c3c(c(O)c1C2=O)C[C@@](O)(/C(C)=N/NC(=O)c1ccccc1)C[C@@H]3OC1CC(N(C)C)C(O)C(C)O1` (stereo not given in full) the T/C (dose: 0.78 mg/kg/injection, schedule: Q01DX009 (ip), vehicle: water) was 165 % of control, the T/C (dose: 1.56 mg/kg/injection, schedule: Q01DX009 (ip), vehicle: water) was 165 % of control and the T/C (dose: 3.13 mg/kg/injection, schedule: Q01DX009 (ip), vehicle: water) was 183 % of control and 192 % of control. For the same compound, the T/C (dose: 12.5 mg/kg/injection, schedule: Q01DX009 (ip), vehicle: water) was 103 % of control.

For `O=C1C=C(Cl)C(=O)C2=C1CCCC2`, the T/C (dose: 6.25 mg/kg/injection, schedule: Q04DX002 (ip), vehicle: saline with Tween-80) was 97 % of control.

For `Cn1c(=O)c(Br)c(Br)c(=O)n1-c1ccc(Br)cc1`, the T/C (dose: 42.5 micrograms/kg/injection, schedule: Q01DX009 (ip), vehicle: Klucel (hydroxypropylcellulose) (HPC)) was 95 % of control, the T/C (dose: 85.0 micrograms/kg/injection, schedule: Q01DX009 (ip), vehicle: Klucel (hydroxypropylcellulose) (HPC)) was 103 % of control and the T/C (dose: 170.0 micrograms/kg/injection, schedule: Q01DX009 (ip), vehicle: Klucel (hydroxypropylcellulose) (HPC)) was 100 % of control.

For `COc1ccccc1N1CCCSC1=Nc1ccccc1`, the T/C (dose: 12.5 mg/kg/injection, schedule: Q01DX009 (ip), vehicle: Klucel (hydroxypropylcellulose) (HPC)) was 105 % of control, the T/C (dose: 25.0 mg/kg/injection, schedule: Q01DX009 (ip), vehicle: Klucel (hydroxypropylcellulose) (HPC)) was 98 % of control and the T/C (dose: 50.0 mg/kg/injection, schedule: Q01DX009 (ip), vehicle: Klucel (hydroxypropylcellulose) (HPC)) was 90 % of control. For the same compound, the T/C (dose: 100.0 mg/kg/injection, schedule: Q01DX009 (ip), vehicle: Klucel (hydroxypropylcellulose) (HPC)) was 119 % of control and the T/C (dose: 200.0 mg/kg/injection, schedule: Q01DX009 (ip), vehicle: Klucel (hydroxypropylcellulose) (HPC)) was 90 % of control.
